Assays:
[1] = target: T1, Adenosine receptor A1 (Rattus norvegicus, UniProt P25099); test: Displacement of [3H]CCPA from adenosine A1 receptor in rat brain cortical membrane; format: cell membranes
T1 sequence (P25099 whole entry): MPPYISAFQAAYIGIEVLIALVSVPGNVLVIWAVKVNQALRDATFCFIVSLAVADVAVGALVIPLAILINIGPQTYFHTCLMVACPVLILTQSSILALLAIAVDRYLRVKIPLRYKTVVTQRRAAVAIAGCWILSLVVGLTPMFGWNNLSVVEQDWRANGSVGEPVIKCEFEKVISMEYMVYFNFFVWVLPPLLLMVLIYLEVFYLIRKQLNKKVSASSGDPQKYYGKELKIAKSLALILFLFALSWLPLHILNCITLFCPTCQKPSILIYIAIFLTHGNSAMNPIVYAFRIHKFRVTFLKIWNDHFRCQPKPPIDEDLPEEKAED

[2] = target: Adenosine receptor A2a (Rattus norvegicus, UniProt P30543)
[3] = target: Adenosine receptor A1 (Rattus norvegicus) (UniProt P25099); test: Displacement of [3H]CCPA from adenosine A1 receptor in rat brain cortical membrane at 25 uM
[4] = test system: Mus musculus; test: Toxicity in Albino F1 mouse assessed as tonic extension followed by death at 300 mg/kg after 0.5 hrs; format: organism-based; set-up: dose 300 mg/kg; conditions: in vivo
[5] = target: T2, Adenosine receptor A3 (Homo sapiens) (UniProt P0DMS8); test: (§1) Displacement of [3H]PSB11 from human adenosine A3 receptor expressed in CHO cells at 10 uM; format: cell-based
T2 sequence (whole entry): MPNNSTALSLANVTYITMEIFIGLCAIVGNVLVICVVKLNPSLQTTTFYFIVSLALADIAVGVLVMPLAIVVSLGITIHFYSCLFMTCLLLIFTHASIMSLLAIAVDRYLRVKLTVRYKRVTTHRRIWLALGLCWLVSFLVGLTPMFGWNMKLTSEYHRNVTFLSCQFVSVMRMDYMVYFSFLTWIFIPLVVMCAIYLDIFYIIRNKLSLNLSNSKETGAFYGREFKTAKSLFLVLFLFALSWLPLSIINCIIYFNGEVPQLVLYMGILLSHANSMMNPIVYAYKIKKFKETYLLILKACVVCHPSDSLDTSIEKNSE

[6] = target: Adenosine receptor A2a (Rattus norvegicus) (UniProt P30543); test: Displacement of [3H]MSX2 from adenosine A2A receptor in rat brain striatal membrane at 25 uM; format: cell membranes
[7] = target: T3, Adenosine receptor A3 (Homo sapiens, UniProt P0DMS8); test: Displacement of [3H]PSB11 from human adenosine A3 receptor expressed in CHO cells; format: cell-based
T3 sequence (P0DMS8 whole entry): T2 sequence (whole entry)

[8] = target: T4, Adenosine receptor A2b (Homo sapiens) (UniProt P29275); test: Displacement of [3H]ZM-241385 from human adenosine A2B receptor expressed in CHO cells at 10 uM; format: cell-based
T4 sequence (whole entry): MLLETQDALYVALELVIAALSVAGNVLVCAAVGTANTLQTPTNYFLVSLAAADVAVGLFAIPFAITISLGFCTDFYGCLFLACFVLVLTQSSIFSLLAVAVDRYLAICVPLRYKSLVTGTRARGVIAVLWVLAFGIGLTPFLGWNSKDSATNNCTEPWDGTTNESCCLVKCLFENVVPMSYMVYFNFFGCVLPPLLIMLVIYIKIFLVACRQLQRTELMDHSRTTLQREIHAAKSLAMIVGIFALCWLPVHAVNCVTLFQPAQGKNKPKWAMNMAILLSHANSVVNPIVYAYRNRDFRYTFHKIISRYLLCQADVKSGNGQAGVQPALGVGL

[9] = target: T5, Adenosine receptor A2b (Homo sapiens, UniProt P29275); test: Displacement of [3H]ZM-241385 from human adenosine A2B receptor expressed in CHO cells; format: cell-based
T5 sequence (P29275 whole entry): T4 sequence (whole entry)

[10] = target: Adenosine receptor A2a (Rattus norvegicus) (UniProt P30543); test: Displacement of [3H]MSX2 from adenosine A2A receptor in rat brain striatal membrane at 10 uM; format: cell membranes
[11] = target: Adenosine receptor A1 (Rattus norvegicus) (UniProt P25099); test: Displacement of [3H]CCPA from adenosine A1 receptor in rat brain cortical membrane at 10 uM
[12] = test system: Mus musculus; test: Toxicity in Albino F1 mouse assessed as death following tonic extension at 300 mg/kg after 0.5 hrs; conditions: in vivo
[13] = target: T6, Adenosine receptor A1 (Homo sapiens, UniProt P30542); test: Displacement of [3H]CCPA from human adenosine A1 receptor expressed in CHO cells; format: cell-based
T6 sequence (P30542 whole entry): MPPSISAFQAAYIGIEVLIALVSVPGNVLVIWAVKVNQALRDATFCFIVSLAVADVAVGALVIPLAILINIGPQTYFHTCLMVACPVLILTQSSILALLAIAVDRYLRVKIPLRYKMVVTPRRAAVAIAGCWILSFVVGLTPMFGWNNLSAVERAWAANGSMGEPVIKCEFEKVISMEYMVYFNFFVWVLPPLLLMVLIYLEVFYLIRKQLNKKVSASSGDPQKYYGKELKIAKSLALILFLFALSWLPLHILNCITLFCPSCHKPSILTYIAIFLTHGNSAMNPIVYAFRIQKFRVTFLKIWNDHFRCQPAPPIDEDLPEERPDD

[14] = target: Adenosine receptor A2a (Homo sapiens, UniProt P29274); test: Displacement of [3H]MSX2 from human adenosine A2A receptor expressed in CHO cells; format: cell-based
[15] = target: T3, Adenosine receptor A3; test: as §1; format: cell-based
[16] = target: T7, Adenosine receptor A1 (Homo sapiens) (UniProt P30542); test: Displacement of [3H]CCPA from human adenosine A1 receptor expressed in CHO cells at 25 uM; format: cell-based
T7 sequence (whole entry): T6 sequence (P30542 whole entry)

[17] = test system: Mus musculus; test: Toxicity in Albino F1 mouse assessed as tonic extension followed by death at 30 mg/kg after 0.5 hrs; format: organism-based; set-up: dose 30 mg/kg; conditions: in vivo
[18] = test system: Mus musculus; test: Toxicity in Albino F1 mouse assessed as continuous seizure at 100 mg/kg after 0.5 hrs; format: organism-based; set-up: dose 100 mg/kg; conditions: in vivo
[19] = target: T4, Adenosine receptor A2b (Homo sapiens); test: Displacement of [3H]PSB298 from human adenosine A2B receptor expressed in CHO cells at 10 uM; format: cell-based
[20] = test system: Mus musculus; test: Toxicity in Albino F1 mouse assessed as continuous seizure followed by death at 100 mg/kg after 0.5 hrs; format: organism-based; set-up: dose 100 mg/kg; conditions: in vivo

Chain of Adenosine receptor A2a (Rattus norvegicus) (P30543 whole entry): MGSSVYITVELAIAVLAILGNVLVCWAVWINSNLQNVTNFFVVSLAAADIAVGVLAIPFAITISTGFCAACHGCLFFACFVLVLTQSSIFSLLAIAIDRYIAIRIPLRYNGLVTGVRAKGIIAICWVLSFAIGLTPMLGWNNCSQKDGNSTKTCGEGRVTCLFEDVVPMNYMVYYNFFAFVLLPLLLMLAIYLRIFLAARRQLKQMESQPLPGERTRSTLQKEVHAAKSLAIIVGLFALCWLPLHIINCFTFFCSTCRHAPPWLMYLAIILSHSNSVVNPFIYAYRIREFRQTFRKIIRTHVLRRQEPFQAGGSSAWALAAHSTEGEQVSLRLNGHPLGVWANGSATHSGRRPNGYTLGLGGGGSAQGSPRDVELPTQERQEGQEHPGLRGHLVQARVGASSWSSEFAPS
Chain of Adenosine receptor A2a (Rattus norvegicus, UniProt P30543) (P30543 whole entry): as above
Chain of Adenosine receptor A2a (Homo sapiens, UniProt P29274) (P29274 whole entry): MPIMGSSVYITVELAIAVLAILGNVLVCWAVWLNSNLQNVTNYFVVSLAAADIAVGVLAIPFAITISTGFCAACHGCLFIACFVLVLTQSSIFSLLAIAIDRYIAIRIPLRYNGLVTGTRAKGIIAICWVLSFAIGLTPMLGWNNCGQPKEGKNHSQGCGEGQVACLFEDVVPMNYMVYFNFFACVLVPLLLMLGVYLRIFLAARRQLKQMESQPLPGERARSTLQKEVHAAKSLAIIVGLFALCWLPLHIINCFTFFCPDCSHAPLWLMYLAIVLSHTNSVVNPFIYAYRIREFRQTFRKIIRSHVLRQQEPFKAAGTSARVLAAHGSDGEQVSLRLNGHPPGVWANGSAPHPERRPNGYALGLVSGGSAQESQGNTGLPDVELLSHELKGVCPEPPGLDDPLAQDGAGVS

SMILES | Ki [1] [µM] | Ki [2] [µM] | Ki [7] [µM] | further results
Cn1c(=O)c2c(nc3n2CCCN3CCNCc2ccc(F)cc2)n(C)c1=O | 2.63 | 14 | – | –
COc1ccc(CCN2CCCn3c2nc2c3c(=O)n(C)c(=O)n2C)cc1OC | ≥ 25 | 1.21 | – | Activity [3]: 33%
Cn1c(=O)c2c(nc3n2CCCN3CCc2ccc(Cl)cc2)n(C)c1=O | 6.47 | 0.48 | – | Activity [4]: Toxic
Cn1c(=O)c2c(nc3n2CCCN3CCOc2ccc(Cl)cc2)n(C)c1=O | 4.22 | 25 | > 1 | Activity [5]: 45%; Activity [6]: 49%; Activity [8]: 44%; Ki [9]: 10 µM
CC(=O)OC(c1ccccc1)C(C)N1CCCn2c1nc1c2c(=O)n(C)c(=O)n1C (configuration not stated) | – | 1.22 | – | –
CC(C(O)c1ccccc1)N1CCCn2c1nc1c2c(=O)n(C)c(=O)n1C (configuration not stated) | 25 | 2.16 | – | Activity [3]: 45%
CC(=O)OC(CN1CCCn2c1nc1c2c(=O)n(C)c(=O)n1C)c1ccccc1 (configuration not stated) | – | 1 | – | Activity [3]: 50%
Cn1c(=O)c2c(nc3n2CCCN3CCOC(=O)Nc2ccc(Cl)cc2)n(C)c1=O | > 10 | > 10 | – | Activity [10]: 32%; Activity [11]: 24%; Activity [12]: Toxic
Cn1c(=O)c2c(nc3n2CCCN3CC(O)c2ccccc2)n(C)c1=O (configuration not stated) | 25 | 1.11 | – | Activity [3]: 49%
Cn1c(=O)c2c(nc3n2CCCN3CCOCc2ccc(Cl)cc2)n(C)c1=O | 10 | 1.33 | – | Activity [11]: 48%
Cn1c(=O)c2c(nc3n2CCCN3CCOC(=O)Nc2cccc(Cl)c2)n(C)c1=O | > 10 | > 10 | – | Activity [10]: 33%; Activity [11]: 10%
CCCn1c(=O)c2c(nc3n2CCCN3CCc2ccccc2)n(CCC)c1=O | 0.62 | 0.86 | 3.66 | Ki [9]: 0.59 µM
Cn1c(=O)c2c(nc3n2CCCN3CCc2c[nH]c3ccccc23)n(C)c1=O | 25 | 0.33 | > 10 | Ki [13]: > 25 µM; Ki [14]: 4.56 µM; Inhibition [15]: 21%; Activity [16]: 21%; Activity [8]: 56%; Ki [9]: 10 µM
Cn1c(=O)c2c(nc3n2CCCN3CCOCc2ccccc2)n(C)c1=O | 3.16 | 3.69 | – | –
Cn1c(=O)c2c(nc3n2CCCN3CCc2ccccc2)n(C)c1=O | > 25 | 0.32 | > 10 | Ki [13]: > 10 µM; Ki [14]: 2.89 µM; Inhibition [15]: 20%; Activity [3]: 31%; Activity [16]: 44%; Activity [8]: 57%; Ki [9]: 10 µM; Activity [17]: Toxic
Cn1c(=O)c2c(nc3n2CCCN3CCOc2ccc(Cl)cc2Cl)n(C)c1=O | 3.5 | 1.09 | – | –
Cn1c(=O)c2c(nc3n2CCCN3CCc2ccc(O)cc2)n(C)c1=O | 25 | – | > 10 | Ki [13]: ≥ 25 µM; Inhibition [15]: 9%; Activity [16]: 34%
CCCn1c(=O)c2c(nc3n2CCCN3CCc2c[nH]c3ccccc23)n(CCC)c1=O | 1.79 | 0.9 | > 1 | –
Cn1c(=O)c2c(nc3n2CCCN3CCCc2ccccc2)n(C)c1=O | 1.99 | 1.1 | – | Activity [18]: Toxic
Cc1ccc(OCCN2CCCn3c2nc2c3c(=O)n(C)c(=O)n2C)cc1 | 10 | 4.6 | > 1 | Activity [11]: 41%
COc1ccc(CCN2CCCn3c2nc2c3c(=O)n(C)c(=O)n2C)cc1 | 3.85 | 0.37 | – | –
Cn1c(=O)c2c(nc3n2CCCN3CCOCc2ccc(F)cc2)n(C)c1=O | 3.68 | 3.05 | – | –
Cn1c(=O)c2c(nc3n2CCCN3CCNCc2ccccc2)n(C)c1=O | 7.55 | 20 | – | Activity [19]: 27%; Ki [9]: > 10 µM
Cn1c(=O)c2c(nc3n2CCCN3CCc2ccccn2)n(C)c1=O | > 25 | > 25 | > 10 | Activity [6]: 37%; Ki [9]: 13.4 µM
Cn1c(=O)c2c(nc3n2CCCN3CCOC(=O)Nc2ccccc2)n(C)c1=O | > 10 | > 10 | – | Activity [10]: 35%; Activity [11]: 3%
CC(=O)Nc1ccc(OCCN2CCCn3c2nc2c3c(=O)n(C)c(=O)n2C)cc1 | 10 | 2.02 | > 1 | Activity [11]: 41%
CCCn1c(=O)c2c(nc3n2CCCN3CCc2ccc(OC)c(OC)c2)n(CCC)c1=O | 0.82 | 1.33 | > 1 | –
Cn1c(=O)c2c(nc3n2CCCN3CCOC/C=C/c2ccccc2)n(C)c1=O | 10 | 4.29 | > 1 | Activity [11]: 36%
Cn1c(=O)c2c(nc3n2CCCN3CCOC(=O)Nc2ccc(F)cc2)n(C)c1=O | > 10 | ≥ 10 | – | Activity [10]: 42%; Activity [20]: Toxic; Activity [11]: 13%
